The source of these data is patent US10421718B2, “EBNA1 inhibitors and their method of use” (priority 2013, dated 2019).

pIC50: −log10 of the molar value. Where a name gives a salt, the structure may show the parent alone.

The term pIC50 denotes −log10 of the IC50, conventionally taken in molar units. A higher pIC50 goes with a small IC50.

In the assay the target is T1, His-EBNA1 (DNA binding domain of EBNA1, amino acids 459-607) (Epstein-Barr virus, UniProt P03211).
T1 construct: made in house; host or cells: E. coli
T1 sequence (P03211 459-607): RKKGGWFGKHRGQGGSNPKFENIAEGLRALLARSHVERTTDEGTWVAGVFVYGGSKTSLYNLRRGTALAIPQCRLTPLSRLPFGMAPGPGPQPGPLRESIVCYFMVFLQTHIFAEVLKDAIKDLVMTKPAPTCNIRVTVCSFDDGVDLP
The assay is described as follows: Inhibition of 5′-biotin-oPL4624 binding to His-EBNA1 using Alpha Screen technology. To be noted: Alpha Screen Activity (IC50, inhibition of 5′-biotin-oPL4624 binding to His-EBNA1), 15 nM His-EBNA1, 0.2 nM bt-oPL4624, 2 hr room temperature. On the procedure:
Inhibition of 5′-biotin-oPL4624 binding to His-EBNA1 using Alpha Screen technology: Assays were performed using the DNA binding domain of EBNA1 (amino acids 459-607), which was His-tagged (His-EBNA1) and the self-complementary biotinylated (bt) oligonucleotide with the sequence 5′-bt-[…]-ATGCTACCC-3′ (bt-oPL4624). The protein was expressed in E. coli and purified according to Barwell, et al. (Barwell J A, Bochkarev A, Pfuetzner R A, Tong H, Yang D S, Frappier L, Edwards A M. (1995) Overexpression, purification, and crystallization of the DNA binding and dimerization domains of the Epstein-Barr virus nuclear antigen 1. J Biol Chem. 270: 20556-9.). The bt-oPL4624 oligonucleotide was purchased from Integrated DNA Technologies, Inc (IDT). AlphaScreen donor, acceptor beads and white, opaque 384-well assay plates were purchased from PerkinElmer, Inc.
Assays contained 15 nM His-EBNA1, 0.2 nM bt-oPL4624, 5 μg/mL AlphaScreen streptavidin donor beads and nickel chelate acceptor beads, and a series of concentrations of test compound ranging from 3.2 nM to 100 μM in a total volume of 40 μL assay buffer (25 mM Tris, pH 7.2, 160 mM NaCl, 1 mM MgCl2). His-EBNA1 (30 nM) and bt-oPL4624 (0.4 nM) were preincubated with 10 μg/mL nickel chelate AlphaScreen acceptor bead, or 10 μg/mL streptavidin AlphaScreen donor bead, respectively, for 30 minutes at room temperature in assay buffer. Twenty microliters of His-EBNA1/acceptor bead mix and bt-oPL4624/donor bead mix were transferred to assay plates containing […] of 1:3 serial dilutions of test compounds previously prepared in DMSO at concentrations ranging from 0.32 μM to 10 mM. Nonspecific binding was determined with 5 μg/mL AlphaScreen acceptor bead in the absence of His-EBNA1. After 2 hr incubation at room temperature, the AlphaScreen signal was measured on the Envision plate reader (PerkinElmer, Inc.) at 680 nm excitation and 570 nm emission. Inhibition values at each concentration of test compound were determined by setting 100% equal to raw data values in the absence of EBNA1 and 0% equal to the raw data values in the presence of EBNA1. Nonlinear regression fits of the inhibition values to a one-site dose-response equation were performed using GraphPad Prism.
`COC/C=C/c1cccc(C(=O)O)c1-n1cccc1` [Entry 144, 3-[(1E)-3-methoxyprop-1-en-1-yl]-2-(1H-pyrrol-1-yl)benzoic acid] showed a pIC50 of 5.00 to 6.00.

`O=C(O)c1cccc(C#Cc2ccc(CO)cc2)c1-n1cccc1` [Entry 20, 3-{2-[4-(hydroxymethyl)phenyl]ethynyl}-2-(1H-pyrrol-1-yl)benzoic acid] gave a pIC50 greater than 6.00.

In the case of `O=C(O)c1cccc(C#Cc2ccc3[nH]ccc3c2)c1-n1cccc1` [Entry 42, 3-[2-(1H-indol-5-yl)ethynyl]-2-(1H-pyrrol-1-yl)benzoic acid], the pIC50 is 5.00 to 6.00. As for `Cn1ccc2cc(-c3c(C#Cc4cscn4)cccc3C(=O)O)ccc21` [Entry 171], the figure is 5.00 to 6.00; as for `Nc1c(C#Cc2ccc3[nH]ccc3c2)cccc1C(=O)O` [Entry 81], greater than 6.00.

Take `CN(C)S(=O)(=O)NC(=O)c1cccc(C#Cc2ccc(F)cc2)c1-n1cccc1` [Entry 114, N-(Dimethylsulfamoyl)-3-[2-(4-fluorophenyl)ethynyl]-2-(1H-pyrrol-1-yl)benzamide]: the pIC50 was 5.00 to 6.00.

Compound `Cn1ncc2ccc(-c3c(C#Cc4ccccc4)cccc3C(=O)O)cc21` [Entry 139, 2-(1-methyl-1H-indazol-6-yl)-3-(2-phenylethynyl)benzoic acid] had a negative-log IC50 (pIC50) of 4.00 to 5.00. Turning to `NC(=O)c1cccc(C#Cc2cccc(C(=O)O)c2)c1` [Entry 180, 3-(3-carbamoyl-phenylethynyl)-benzoic acid], the negative-log IC50 (pIC50) was greater than 6.00. The same measure for `Nc1c(C#Cc2ccccc2)cccc1C(=O)O` [Entry 84]: 4.00 to 5.00.

Turning to `Cc1ccc(C)n1-c1c(C#CC(C)(C)O)cccc1C(=O)O` [Entry 191, 2-(2,5-dimethyl-pyrrol-1-yl)-3-(3-hydroxy-3-methyl-but-1-ynyl)-benzoic acid], the pIC50 was 4.00 to 5.00. As for `O=C(O)c1cccc(C#CCCCO)c1-n1cccc1` [Entry 66, 3-(5-hydroxypent-1-yn-1-yl)-2-(1H-pyrrol-1-yl)benzoic acid], the figure is greater than 6.00; as for `O=C(O)c1cccc(C#Cc2ccncc2)c1-n1cnc2ccccc21` [Entry 300, 2-benzoimidazol-1-yl-3-pyridin-4-ylethynyl-benzoic acid], 4.00 to 5.00; as for `Nc1c(C#Cc2cccc(O)c2)cccc1C(=O)O` [Entry 83], 5.00 to 6.00. The same measure for `C(#Cc1c[nH]c2ncccc12)c1cccc(-c2nnn[nH]2)c1` [Entry 281, 3-[3-(1H-tetrazol-5-yl)-phenylethynyl]-1H-pyrrolo[2,3-b]pyridine]: 4.00 to 5.00; for `CC(=O)Nc1cccc(-c2c(C#Cc3ccccc3)cccc2C(=O)O)c1` [Entry 257, 5′-acetamido-6-(phenylethynyl)biphenyl-2-carboxylic acid]: 4.00 to 5.00; for `O=C(O)c1cccc(C#Cc2ccc(F)c(OC3CCOCC3)c2)c1-c1ccc2cc[nH]c2c1` [Entry 256, 3-((4-fluoro-3-(tetrahydro-2H-pyran-4-yloxy)phenyl)ethynyl)-2-(1H-indol-6-yl)benzoic acid]: 5.00 to 6.00.

`CN1CCOc2cc(-c3c(C#Cc4cccc(O)c4)cccc3C(=O)O)ccc21` [Entry 264, 3-[2-(3-hydroxyphenyl)ethynyl]-2-(4-methyl-3,4-dihydro-2H-1,4-benzoxazin-7-yl)benzoic acid; trifluoroacetate salt] gave a negative-log IC50 (pIC50) of 5.00 to 6.00.

As for `Cn1ccnc1C#Cc1cccc(C(=O)O)c1-n1cccc1` [Entry 27, 3-[2-(1-methyl-1H-imidazol-2-yl)ethynyl]-2-(1H-pyrrol-1-yl)benzoic acid], the pIC50 was 4.00 to 5.00. The same measure for `O=C(O)c1cccc(C#Cc2cnc3cnccn23)c1F` [Entry 87, 2-fluoro-3-(2-{imidazo[1,2-a]pyrazin-3-yl}ethynyl)benzoic acid]: greater than 6.00; for `Cn1cc(-c2c(C#Cc3cscn3)cccc2C(=O)O)cn1` [Entry 219, 2-(1-methyl-1H-pyrazol-4-yl)-3-(thiazol-4-ylethynyl)benzoic acid]: 4.00 to 5.00; for `Cc1nc2cc(-c3c(C#Cc4c[nH]c5ncccc45)cccc3C(=O)O)ccc2s1` [Entry 168, 2-(2-methyl-1,3-benzothiazol-5-yl)-3-(2-{1H-pyrrolo[2,3-b]pyridin-3-yl}ethynyl)benzoic acid]: 4.00 to 5.00. As for `C(#Cc1ccc2cc[nH]c2c1)c1cccc(-c2nnn[nH]2)c1` [Entry 282, 6-[3-(1H-tetrazol-5-yl)-phenylethynyl]-1H-indole], the figure is 5.00 to 6.00; as for `NS(=O)(=O)c1cccc(C#Cc2cccc(C(=O)O)c2-n2cccc2)c1` [Entry 4, 2-(1H-pyrrol-1-yl)-3-[2-(3-sulfamoylphenyl)ethynyl]benzoic acid], greater than 6.00. `O=C(O)c1cccc(C#Cc2ccccc2)c1-c1cc2ccccc2o1` [Entry 204, 2-benzofuran-2-yl-3-phenylethynyl-benzoic acid]: the negative-log IC50 (pIC50) is 5.00 to 6.00.

For `Nc1cc(C#Cc2cccc(C(=O)O)c2-c2ccc3cc[nH]c3c2)ccn1` [Entry 240, 3-((2-aminopyridin-4-yl)ethynyl)-2-(1H-indol-6-yl)benzoic acid], the negative logarithm of the IC50 (pIC50) was 5.00 to 6.00.

Compound `O=C(O)c1cccc(CCc2ccccc2)c1N1CCCC1` [Entry 148, 3-(2-phenylethyl)-2-(pyrrolidin-1-yl)benzoic acid] gave a pIC50 of 4.00 to 5.00. The same measure for `O=C(O)c1cccc(C#Cc2ccncc2)c1-c1ccc2[nH]ccc2c1` [Entry 270, 2-(1H-indol-5-yl)-3-[2-(pyridin-4-yl)ethynyl]benzoic acid; trifluoroacetate salt]: 4.00 to 5.00; for `Nc1c(C#Cc2ccc3cc[nH]c3c2)cccc1C(=O)O` [Entry 80, 2-amino-3-[2-(1H-indol-6-yl)ethynyl]benzoic acid]: greater than 6.00. The same measure for `O=C(O)c1cccc(C#Cc2cnc3cnccn23)c1-c1cnc2ccccc2c1` [Entry 143, 3-(imidazo[1,2-a]pyrazin-3-ylethynyl)-2-(quinolin-3-yl)benzoic acid]: 5.00 to 6.00; for `O=C(O)c1cccc(C#Cc2ccncc2)c1-c1cc(O)cc(Cl)c1` [Entry 271, 2-(3-chloro-5-hydroxyphenyl)-3-[2-(pyridin-4-yl)ethynyl]benzoic acid; trifluoroacetate salt]: 5.00 to 6.00. `O=C(O)c1cccc(/C=C/c2ccccc2)c1-n1cccc1` [Entry 145, 3-[(E)-2-phenylethenyl]-2-(1H-pyrrol-1-yl)benzoic acid] gave a negative logarithm of the IC50 (pIC50) of 4.00 to 5.00.

Compound `CN(C)S(=O)(=O)c1cccc(C#Cc2cccc(C(=O)O)c2-n2cccc2)c1` [Entry 37, 3-{2-[3-(dimethylsulfamoyl)phenyl]ethynyl}-2-(1H-pyrrol-1-yl)benzoic acid] gave a negative logarithm of the IC50 (pIC50) greater than 6.00. Compound `Nc1c(C#Cc2cccc(C(=O)O)c2)cccc1C(=O)O` [Entry 279, 2-amino-3-[2-(3-carboxyphenyl)ethynyl]benzoic acid; trifluoroacetate salt] had a pIC50 of 4.00 to 5.00.

For the compound `Cn1ccc2cc(C#Cc3cccc(C(=O)O)c3-n3cccc3)ccc21` [Entry 16, 3-[2-(1-methyl-1H-indol-5-yl)ethynyl]-2-(1H-pyrrol-1-yl)benzoic acid], the pIC50 was greater than 6.00. As for `NC1(C#Cc2cccc(C(=O)O)c2-n2cccc2)CCCCC1` [Entry 53, 3-[2-(1-aminocyclohexyl)ethynyl]-2-(1H-pyrrol-1-yl)benzoic acid trifluoroacetic acid], the figure is greater than 6.00; as for `Cn1ccc2cc(-c3c(C#Cc4cccc(O)c4)cccc3C(=O)O)ccc21` [Entry 263, 3-[2-(3-hydroxyphenyl)ethynyl]-2-(1-methyl-1H-indol-5-yl)benzoic acid], 5.00 to 6.00; as for `O=C(O)c1cccc(C#Cc2cscn2)c1F` [Entry 89], 5.00 to 6.00. Consider `O=C(O)c1cccc(C#Cc2cncc(O)c2)c1-n1cccc1` [Entry 40, 3-[2-(5-hydroxypyridin-3-yl)ethynyl]-2-(1H-pyrrol-1-yl)benzoic acid], for which the negative-log IC50 (pIC50) was 4.00 to 5.00. Consider `O=S(=O)(c1ccccc1)n1cc(C#Cc2cccc(-c3nnn[nH]3)c2)c2ccccc21` [Entry 283, 1-benzenesulfonyl-3-[3-(1H-tetrazol-5-yl)-phenylethynyl]-1H-indole], for which the negative-log IC50 (pIC50) is greater than 6.00.

`CC(=O)NCCc1c[nH]c2cc(-c3c(C#Cc4cccc(O)c4)cccc3C(=O)O)ccc12` [Entry 223, 2-(3-(2-acetamidoethyl)-1H-indol-6-yl)-3-((3-hydroxyphenyl)ethynyl)benzoic acid] showed a pIC50 of 5.00 to 6.00.
